From patent US12708673B2, “Methods and compositions related to peptides and proteins with c-terminal elements” (Sanford Burnham Prebys Medical Discovery Institute, priority 2008, dated 2026)
“Also recorded” adds a separate entry of the source.

Assays:
cells = assay: Cell internalization of iRGD compared with other RGD peptides; format: cell-based
pancreatic tumors = assay: Tumor homing of intravenously injected fluorescamine-labeled iRGD peptide in PDAC mouse; format: in vivo; conditions: intravenous, 4.5 hrs circulation
Experimental: Approximately 200 μg of fluorescamine-labeled iRGD peptide was injected into a pancreatic ductal adenocarcinoma (PDAC) mouse through the tail vein, and was allowed to circulate for 4.5 hrs. The organs were harvested and observed under UV light (upper panel). […] T7 phage displaying iRGD peptides (main panel) or CG7C control peptides (right upper window) were incubated with PPC1 cells cultured on collagen-I coated cover slips for 2 hours at 37° C., stained with anti T7 antibody and a plasma membrane marker, and imaged by a confocal microscope.

PPC-1 cells [1] = assay: T7 phage internalization into PPC-1 (PPC1) cells at 37° C. (acid wash and titration, or anti-T7 staining and confocal imaging); format: cell-based, human
Experimental: (§1) FIG. 2A: Binding of T7 phage to prostate cancer cells depends on the display of a C-terminal arginine on the phage particles. PPC1 cells were incubated with T7 bacteriophage displaying derivatives of the G7 (upper graph) or RPARPAR peptide (SEQ ID NO: 2) (lower graph) at 4° C., and the bound phage was quantified by plaque assay. Binding is expressed in fold over of the non-binding G7 control phage. FIG. 2B: Phage displaying C-terminal arginine is internalized into cultured PPC1 cells (arrow, nuclear internalization; arrowhead, cytoplasmic internalization). A panel of T7 phage clones were incubated at 37° C. with PPC1 cells grown on collagen-coated coverslips, stained with anti T7 antibody and imaged by confocal microscopy.
(§2) Phage display. For in vivo phage display, mice were injected intravenously with 10^10 plaque-forming units (pfu) of T7 phage followed by perfusion of the circulatory system and determination of the bound phage in target organs by titration. For cell binding studies on cultured cells (in vitro display) and organ-derived cell suspensions (ex vivo display), the cells were incubated with 10^9 pfu of phage at 4° C., washed, lysed, and quantified by titration. Incubation at 37° C. followed by low pH wash (glycine-HCl, pH 2.5) was used to assess the amount of internalized phage.
(§3) For biopanning and phage binding studies (Hoffman, J. A. et al., 2004), cultured cells were grown to confluence and harvested with trypsin and mouse organs were dissociated using Medimachine (BD Biosciences, San Jose, CA). To measure phage binding, 10^6 cells in binding buffer (DMEM containing 1% BSA) were incubated with 10^9 pfu/ml of T7 phage for 1 hour at 4° C. The cells were washed 4 times with the binding buffer, lysed in LB bacterial growth medium containing 1% NP-40, and titrated. Phage internalization assays used the same procedure, except that the cells were incubated with the phage at 37° C., and that an acidic buffer (500 mM sodium chloride, 0.1 M glycine, 1% BSA, pH 2.5) was used instead of binding buffer in the second wash.
(§4) Centrifugation on a silicone oil cushion (1.03 g/ml) was used to separate unbound phage from cells during time course experiments. Inhibitors of phage binding and internalization (heparin, chondroitin, glycocalyx removal enzymes, endocytosis inhibitors, free peptides, quantum dots and UV-inactivated phage) were added to the cells 20 minutes prior to incubation with phage. Endocytosis inhibitors used in this study were the following: nystatin (50 μg/ml), genistein (100 μg/ml), chlorpromazine (5 μg/ml), 5-(N-ethyl-N-isopropyl) amiloride (100 μM), wortmannin (10 μM).
Immunofluorescence staining. Cultured cells (2×10^5 cells) were grown in 6-well tissue culture plates on collagen-I coated coverslips (BD Biosciences, San Jose, CA) overnight at 37° C. in 5% CO2, and incubated with 10^8 pfu of T7 phage. The cells were fixed in 4% paraformaldehyde or cold (−20° C.) methanol, and stained with antibodies. Nuclei were stained with DAPI or […]. A polyclonal rabbit anti-T7 antibody was generated in-house as described previously (Laakkonen, P. et al. 2002b), except that an additional phage purification step using […] centrifugation was included. Other primary antibodies used were rat anti-mouse CD31 monoclonal antibody (BD Biosciences), rabbit anti-NRP-1, mouse anti-human Lamp-1, mouse anti-human caveolin (Millipore, Temecula, CA), mouse anti-NRP-1 (Miltenyi Biotec Inc., Auburn, CA), mouse anti-human EEA-1 (BD Biosciences, San Jose, CA). The secondary antibodies, Alexa594 goat antibodies to mouse, rat, and rabbit immunoglobulins and Alexa488 donkey anti-rabbit antibody were from Invitrogen (Carlsbad, CA). Cells and tissue sections were examined by confocal microscopy (Fluoview 500, Olympus America Inc., Center Valley, PA).

[2] = tested on: spontaneous pancreatic ductal adenocarcinoma; assay: Spreading of intravenously injected phage into tumor tissue of transgenic mice bearing pancreatic ductal adenocarcinoma; format: in vivo, mouse; conditions: 15 min circulation
Excerpt: The mice were than perfused with PBS containing 1% BSA, and the tumors were harvested. Cryosections of the tumors were stained with an anti-T7 phage antibody, an anti CD31 antibody, and DAPI. […] Staining is denoted by the bright coloring in both panels of FIG. 9.

NRP-1 = molecular target: T1, NRP-1 (Homo sapiens, UniProt O14786); assay: Affinity chromatography of PPC-1 tumor extract on immobilized RPARPAR peptide; format: binding; conditions: 130 kDa protein, MALDI-TOF
T1 construct: from tissue; host or cells: orthotopic PPC-1 prostate tumor xenografts grown in BALB/c nude mice, extracted with n-octyl-beta-D-glucopyranoside
T1 sequence (O14786 22-923): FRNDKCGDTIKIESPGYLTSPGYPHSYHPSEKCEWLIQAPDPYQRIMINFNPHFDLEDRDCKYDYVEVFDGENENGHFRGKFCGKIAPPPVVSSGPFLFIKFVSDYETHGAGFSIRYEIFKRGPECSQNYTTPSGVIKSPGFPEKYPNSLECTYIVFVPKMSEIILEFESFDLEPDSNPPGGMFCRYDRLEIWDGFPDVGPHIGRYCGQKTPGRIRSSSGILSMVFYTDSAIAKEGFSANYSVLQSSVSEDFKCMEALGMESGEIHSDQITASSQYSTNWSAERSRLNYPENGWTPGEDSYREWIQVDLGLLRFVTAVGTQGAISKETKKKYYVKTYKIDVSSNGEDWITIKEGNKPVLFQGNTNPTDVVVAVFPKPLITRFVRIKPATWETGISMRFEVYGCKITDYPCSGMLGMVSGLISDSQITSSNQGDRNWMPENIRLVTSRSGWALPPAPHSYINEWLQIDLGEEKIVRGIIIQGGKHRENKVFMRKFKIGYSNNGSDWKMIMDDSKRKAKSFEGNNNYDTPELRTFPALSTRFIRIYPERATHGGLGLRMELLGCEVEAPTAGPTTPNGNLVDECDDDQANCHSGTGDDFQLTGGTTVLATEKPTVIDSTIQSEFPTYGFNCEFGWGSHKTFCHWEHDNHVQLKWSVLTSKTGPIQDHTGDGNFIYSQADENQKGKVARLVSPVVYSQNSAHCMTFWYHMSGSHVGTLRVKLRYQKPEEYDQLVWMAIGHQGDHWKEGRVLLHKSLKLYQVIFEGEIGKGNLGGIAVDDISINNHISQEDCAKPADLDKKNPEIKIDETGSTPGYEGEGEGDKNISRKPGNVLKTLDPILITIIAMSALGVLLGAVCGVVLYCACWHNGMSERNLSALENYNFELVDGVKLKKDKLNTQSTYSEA
Experimental: (§5) FIGS. 18A-18C show the identification and validation of NRP-1 as the CendR receptor. FIG. 18A: Affinity chromatography of proteins interacting with RPARPAR (SEQ ID NO: 2) peptide. PPC-1 tumor tissue was extracted with a 200 mM glucopyranoside buffer, and the extract was incubated with RPARPAR-coated (SEQ ID NO:2) beads, followed by extensive washes, and elution with 2 mM free RPARPAR (SEQ ID NO:2) peptide. Note appearance of a 130 kDa band, identified by mass spectroscopy as NRP-1, starting in the fraction 3 of the eluate. Upper panel—a silver stained gel, lower panel—an immunoblot with anti-NRP-1 antibody. FIG. 18B: Binding of RPARPAR (SEQ ID NO:2) phage to M21 melanoma cells transiently transfected with wild-type NRP-1 (NRP-1), triple mutant NS346A-E348A-T349A NRP-1 (Mutant NRP-1), or parental pcDNA3.1plasmid (Vector), and to non-transfected M21 cells. FIG. 18C: (c, d), Confocal immunofluorescence images of NRP-1 and RPARPAR (SEQ ID NO:2) T7 phage in PPC-1 cells incubated with phage at 37° C. for 40 minutes (c) and 3 hours (d). The phage and NRP-1 co-localize extensively, but there appears to be a progressive decrease in the overlap (arrowheads in c and d) and appearance of structures positive for the phage only (arrows, d). (e) Immunostaining and confocal imaging of RPARPAR (SEQ ID NO:2) phage and NRP-1 in M21 cells transiently transfected with NRP-1. […]

wild-type NRP-1 = molecular target: T2, wild-type NRP-1 (Homo sapiens, UniProt O14786); assay: Phage binding and internalization in M21 melanoma cells transiently transfected with wild-type NRP-1; format: cell-based
T2 construct: expressed in transfected cells; host or cells: M21 melanoma cells, transient transfection with lipofectamine; pcDNA3.1(+) construct, gift of Dr. Michael Klagsbrun
T2 sequence (O14786 22-923): as above
Experimental: as §5

PPC-1 cells [3] = assay: T7 phage binding to PPC-1 (PPC1) cells at 4° C., quantified by titration/plaque assay; format: cell-based, human
Experimental: as §1, §2, §3, §4

PPC-1 cells [4] = assay: Protease treatment of phage followed by phage binding assay on PPC-1 cells at 4° C.; format: cell-based, human
Experimental: 5×10^8 phage particles were incubated with indicated volumes of 2.5% trypsin at 37° C. for 20 min, followed by incubation of the phage with 1×10^6 PPC1 cells at 4° C. for 3 hours. Binding is expressed as fold over non-binding G7 control phage (the internalization of which was not affected by the trypsin treatment).
10^9 pfu of RPARPARA (SEQ ID NO:3) phage was treated with indicated amounts of trypsin at 37° C. followed by phage binding assay at 4° C. The data are representative of 4 independent binding experiments.
FIGS. 20A-20C show urokinase dependent CendR peptide. FIG. 20A: The design of a uPA-activatable CendR peptide (uCendR). […] Statistical analysis was performed with ANOVA (b); n=3; error bars indicate s.d.; triple asterisk, p<0.001. Scale bars: 20 μm.
as §3
Protease treatment of phage and qdots. 10^9 phage particles or 50 μl of peptide-coated qdots phage were treated with 50 iu of uPA, 25 μg of crystalline trypsin, 50 iu of thrombin, or 25 μg of collagenase type I (all Sigma, St. Louis, Mo).

CRGDKGPDC [iRGD peptide]
Internalization into cells relative to other RGD peptides (cells): more strongly internalized into cells than any other RGD peptide
Tumor homing (pancreatic tumors): strong tumor homing; also recorded: homes to pancreatic tumors

CRGDKGPDC [iRGD phage]
Phage internalization into PPC-1 cells (in words) (PPC-1 cells [1]; 37° C.): internalizes extensively into the tumor cells
Distribution of phage in pancreatic tumor tissue [2]: extensively taken up by the tumor cells forming the pancreatic tumor ducts

RPARPAR (REAGENT) [RPARPAR peptide]
Protein released from immobilized peptide by elution with free RPARPAR peptide (NRP-1): NRP-1
Effect of unlabelled peptide in binding buffer on binding and internalization of VEGF-C7, enhanced tuftsin and A7R phage (PPC-1 cells [1]): reduced

RPARPARA [RPARPARA phage]
Phage binding and internalization by M21 cells with forced expression of NRP-1 (wild-type NRP-1): is not internalized
Phage binding to PPC-1 cells (in words) (PPC-1 cells [3]; 4° C.): abolished the binding
Cell binding, fold over G7-displaying phage (PPC-1 cells [3]; PPC1 cells, without trypsin treatment): 2.8 fold
Increase of phage binding to cells by trypsin treatment of the phage (PPC-1 cells [4]; phage incubated with trypsin at 37° C., binding at 4° C.): more than 100 fold
Effect of trypsin treatment of phage on binding (in words) (PPC-1 cells [4]; trypsin): restored
